ChEMBL document CHEMBL5241114, “A comprehensive review of BET-targeting PROTACs for cancer therapy” (Bioorg Med Chem, 2022)

Key:
BXPC-3 = assay: Antiproliferative activity against human BXPC-3 cells assessed as inhibition of cell growth incubated for 72 hrs by MTT assay; type: functional, cell-based; settings: BXPC-3, 72 h
[1] = target: T1, Bromodomain-containing protein 4 (Homo sapiens, UniProt O60885); assay: Induction of BRD4 degradation in human HEK293T cells; type: cell-based
[2] = target: T1, Bromodomain-containing protein 4; assay: Induction of BRD4 degradation in human HEK293T cells at 10 uM measured at 6 hrs relative to control; type: cell-based
[3] = Half life of the compound in DMSO; type: physicochemical
MM1.S = assay: Antiproliferative activity against human MM1.S cells assessed as inhibition of cell growth; type: functional, cell-based
MV4-11 [4] = assay: Antiproliferative activity against human MV4-11 cells assessed as inhibition of cell growth; type: functional, cell-based
[5] = target: T1, Bromodomain-containing protein 4; assay: Induction of degradation of BRD4 (unknown origin)
MDA-MB-468 [6] = assay: Antiproliferative activity against human MDA-MB-468 cells assessed as inhibition of cell growth; type: functional, cell-based
[7] = target: T1, Bromodomain-containing protein 4; assay: Induction of BRD4 degradation in human EOL1 cells relative to control; type: cell-based
EOL1 = assay: Antiproliferative activity against human EOL1 cells assessed as inhibition of cell growth; type: functional, cell-based
[8] = target: T1, Bromodomain-containing protein 4; assay: Induction of BRD4 degradation in human EOL1 cells; type: cell-based
HL-60 = assay: Antiproliferative activity against human HL-60 cells assessed as inhibition of cell growth; type: functional, cell-based
Caspase-3/Caspase-7 = target: T2, Caspase-3/Caspase-7 (Homo sapiens, UniProt P42574+P55210); assay: Activation of caspase 3/7 in human 22Rv1 cells by Caspase-Glo reagent based analysis; type: cell-based
T2 sequence (P42574 whole entry): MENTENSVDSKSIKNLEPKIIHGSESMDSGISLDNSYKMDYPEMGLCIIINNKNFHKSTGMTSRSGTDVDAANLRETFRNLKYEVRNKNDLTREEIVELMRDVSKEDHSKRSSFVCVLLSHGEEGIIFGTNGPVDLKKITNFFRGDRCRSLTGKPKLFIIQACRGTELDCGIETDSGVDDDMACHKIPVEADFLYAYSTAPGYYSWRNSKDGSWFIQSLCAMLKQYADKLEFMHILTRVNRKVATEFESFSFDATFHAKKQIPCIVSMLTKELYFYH
T2 sequence (P55210 whole entry): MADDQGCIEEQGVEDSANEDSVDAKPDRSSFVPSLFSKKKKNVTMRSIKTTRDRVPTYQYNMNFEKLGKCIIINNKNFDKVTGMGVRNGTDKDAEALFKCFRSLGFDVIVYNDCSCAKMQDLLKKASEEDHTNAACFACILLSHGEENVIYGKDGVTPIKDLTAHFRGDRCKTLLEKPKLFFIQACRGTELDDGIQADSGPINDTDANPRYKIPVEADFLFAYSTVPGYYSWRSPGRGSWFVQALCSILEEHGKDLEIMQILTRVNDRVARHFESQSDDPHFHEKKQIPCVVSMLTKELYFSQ

MDA-MB-468 [9] = assay: Antitumor activity against human MDA-MB-468 cells xenografted in mouse assessed as tumor growth inhibition at 5 mg/kg, iv; type: functional; settings: read-out: TGI
MDA-MB-468 [10] = assay: Antiproliferative activity against human MDA-MB-468 cells; type: functional, cell-based
[11] = target: T1, Bromodomain-containing protein 4; assay: Induction of BRD4 degradation in human HD-MB03 cells measured after 12 hrs; type: cell-based
NAMALVA = assay: Antiproliferative activity against human NAMALVA cells; type: functional
[12] = target: T1, Bromodomain-containing protein 4; assay: Induction of BRD4 (unknown origin) degradation at 1 uM relative to control
[13] = Antiproliferative activity against human Burkitts lymphoma cells; type: functional; settings: Burkitts lymphoma cell
[14] = target: T1, Bromodomain-containing protein 4; assay: Binding affinity to BRD4 bromodomain 1 in human Ramos cells; type: cell-based
MV4-11 [15] = assay: Cytotoxicity against human MV4-11 cells; type: functional, cell-based
[16] = target: T1, Bromodomain-containing protein 4; assay: Induction of BRD4 degradation in human HD-MB03 cells at 100 nM measured at 12 hrs relative to control; type: cell-based
MV4-11 [17] = assay: Cytotoxicity against human MV4-11 cells measured after 96 hrs; type: functional, cell-based; settings: MV4-11, 96 h
[18] = target: T1, Bromodomain-containing protein 4; assay: Induction of BRD4 degradation in human HEK293T cells at 20 uM relative to control; type: cell-based
MCF7 [19] = assay: Antitumor activity against human MCF7 cells xenografted in mouse assessed as tumor growth inhibition; type: functional
[20] = target: T1, Bromodomain-containing protein 4; assay: Induction of BRD4 degradation in human MCF7 cells incubated for 72 hrs by Western blot analysis; type: cell-based
MCF7 [21] = assay: Cytotoxicity against human MCF7 cells assessed as measuring cell viability incubated for 48 hrs by CCK-8 assay; type: toxicity, cell-based; settings: MCF7, 48 h
[22] = target: T1, Bromodomain-containing protein 4; assay: Induction of BRD4 degradation in human MCF7 cells incubated for 72 hrs by Western blot analysis relative to control; type: cell-based
[23] = Cytotoxicity against human MCF10 cells assessed as measuring cell viability incubated for 48 hrs by CCK-8 assay; type: toxicity, cell-based

CCS(=O)(=O)Nc1ccc(Oc2ccc(F)cc2F)c(-c2cn(C)c(=O)c3[nH]c(C(=O)NCc4cn(CCOCC(=O)Nc5cccc6c5CN(C5CCC(=O)NC5=O)C6=O)nn4)cc23)c1 (stereo not given)
IC50 (BXPC-3): 170 nM

Cc1sc2c(c1C)C(c1ccc(Cl)cc1)=N[C@@H](CC(=O)NCCOCCNC(=O)CN1CCOc3cc(N(CCC#N)C(=O)CCl)ccc31)c1nnc(C)n1-2
DC50 [1]: 820 nM
Emax [2]: 81%

COc1cc(/N=N\c2cccc3c2CN(C2CCC(=O)NC2=O)C3=O)cc(OC)c1OCC(=O)NCCCCNC(=O)C[C@@H]1N=C(c2ccc(Cl)cc2)c2c(sc(C)c2C)-n2c(C)nnc21 (stereo not given in full)
half-life [3]: 8.8 h

CCS(=O)(=O)Nc1ccc(Oc2ccc(F)cc2F)c(-c2cn(C)c(=O)c3[nH]ccc23)c1 [MIVEBRESIB]
IC50 (BXPC-3): 1220 nM

Cc1sc2c(c1C)C(c1ccc(Cl)cc1)=N[C@@H](CC(=O)NCCCCCNc1cccc3c1CN(C1CCC(=O)NC1=O)C3=O)c1nnc(C)n1-2 (stereo not given in full)
IC50 (MM1.S): 6.7 nM
IC50 (MV4-11 [4]): 0.9 nM
DC50 [5]: < 0.5 nM
IC50 (MDA-MB-468 [6]): 125 nM

CCS(=O)(=O)Cc1cc2c(cc1C(=O)NCCCCCCCCCCC(=O)N[C@H](C(=O)N1C[C@@H](O)C[C@H]1C(=O)NCc1ccc(-c3scnc3C)cc1)C(C)(C)C)N(c1ncc(F)cc1F)Cc1c[nH]c3c(=O)n(C)cc-2c13
Emax [7]: > 99%
IC50 (EOL1): 0.02 nM
DC50 [8]: 0.03 nM
IC50 (HL-60): 0.03 nM

Cc1ncsc1-c1ccc(CNC(=O)[C@@H]2C[C@@H](O)CN2C(=O)[C@@H](NC(=O)COCC(C)(COCCOCCOCCNC(=O)C[C@@H]2N=C(c3ccc(Cl)cc3)c3c(sc(C)c3C)-n3c(C)nnc32)COCCOCCOCCNC(=O)C[C@@H]2N=C(c3ccc(Cl)cc3)c3c(sc(C)c3C)-n3c(C)nnc32)C(C)(C)C)cc1
EC50 (Caspase-3/Caspase-7): 2 nM

CCn1nc(C2CC2)cc1Nc1nc(C(=O)NCCCOCCOCCOCCCNc2cccc3c2C(=O)N(C2CCC(=O)NC2=O)C3=O)nc2[nH]c3cc(-c4c(C)noc4C)c(OC)cc3c12 (stereo not given)
inhibition in vivo at 5 mg/kg (MDA-MB-468 [9]): 85%
IC50 (MDA-MB-468 [10]): < 10 nM
DC50 [11]: 230 nM
DC50 [5]: 5 nM
GI50 (NAMALVA): 340 nM
Emax [12]: 93%
GI50 [13]: 400 nM
IC50 [14]: 22 nM
IC50 (MV4-11 [15]): 1240 nM
Emax [16]: 63%
IC50 (MV4-11 [17]): 6 nM

Cc1sc2c(c1C)C(c1ccc(Cl)cc1)=N[C@@H](CC(=O)NCCOCCOCCOCCN1CCOc3cc(N(CCC#N)C(=O)CCl)ccc31)c1nnc(C)n1-2
DC50 [1]: 3600 nM
Emax [2]: 60%

Cc1sc2c(c1C)C(c1ccc(Cl)cc1)=N[C@@H](CC(=O)NCCOCCOCCOCCOCCN1CCOc3cc(N(CCC#N)C(=O)CCl)ccc31)c1nnc(C)n1-2
DC50 [1]: 1600 nM
Emax [2]: 80%

O=C(CCl)N1CCCc2cc(O)ccc21
Activity [18]: 35%

Cc1sc2c(c1C)C(c1ccc(Cl)cc1)=N[C@@H](CC(=O)NCCOCCOCCOCC(=O)NC(C)C(C)(C)C)c1nnc(C)n1-2 (stereo not given in full)
TGI (MCF7 [19]): 59.8%
DC50 [20]: 22 nM
IC50 (MCF7 [21]): 59.8 nM
Emax [22]: 13%
IC50 at 48 h [23]: 670 nM
